Converted amounts (≈) assume the structure as drawn. The source made the active and inactive calls. The rule behind the calls is not given here.
Tests used:
[1] = tested on: Acinetobacter baumannii; test: Antibacterial activity against Acinetobacter baumannii DSM30007 assessed as growth inhibition by measuring minimal concentration at OD600 by visual inspection with iron-limited media incubated for 24 hrs; type: functional
[2] = tested on: Staphylococcus aureus; test: Antibacterial activity against Staphylococcus aureus DSM11822 assessed as growth inhibition by measuring minimal concentration at OD600 by visual inspection with iron-limited media incubated for 24 hrs; type: functional
[3] = tested on: Escherichia coli; test: Antibacterial activity against Escherichia coli BW25113 assessed as growth inhibition by measuring minimal concentration at OD600 by visual inspection with iron-limited media incubated for 24 hrs; type: functional
[4] = tested on: Klebsiella pneumoniae; test: Antibacterial activity against Klebsiella pneumoniae DSM11678 assessed as growth inhibition by measuring minimal concentration at OD600 by visual inspection with iron-limited media incubated for 24 hrs; type: functional, organism-based
[5] = tested on: Pseudomonas aeruginosa; test: Antibacterial activity against Pseudomonas aeruginosa DSM24068 assessed as growth inhibition by measuring minimal concentration at OD600 by visual inspection with iron-limited media incubated for 24 hrs; type: functional, organism-based
[6] = tested on: Enterococcus faecium; test: Antibacterial activity against Enterococcus faecium DSM20477 assessed as growth inhibition by measuring minimal concentration at OD600 by visual inspection with iron-limited media incubated for 24 hrs; type: functional
[7] = tested on: Escherichia coli; test: Recovery of growth in Escherichia coli BW25113 delta entA assessed as reversal of growth at 10 uM in presence of 0.1 uM iron(III) chloride hexahydrate by growth recovery assay; type: functional, organism-based
[8] = tested on: Escherichia coli; test: Antibacterial activity against Escherichia coli delta fepD assessed as growth inhibition by measuring minimal concentration at OD600 by visual inspection with iron-limited media incubated for 24 hrs; type: functional
[9] = tested on: Escherichia coli; test: Antibacterial activity against Escherichia coli delta fepA delta cirA assessed as growth inhibition by measuring minimal concentration at OD600 by visual inspection with iron-limited media incubated for 24 hrs; type: functional
[10] = tested on: Escherichia coli; test: Antibacterial activity against Escherichia coli delta […] delta fiu assessed as growth inhibition by measuring minimal concentration at OD600 by visual inspection with iron-limited media incubated for 24 hrs; type: functional
[11] = tested on: Escherichia coli; test: Antibacterial activity against Escherichia coli delta fepA delta cirA delta fiu assessed as growth inhibition by measuring minimal concentration at OD600 by visual inspection with iron-limited media incubated for 24 hrs; type: functional
[12] = tested on: Escherichia coli; test: Antibacterial activity against wild type Escherichia coli BW25113 assessed as growth inhibition by measuring minimal concentration at OD600 by visual inspection with iron-limited media incubated for 24 hrs; type: functional
[13] = tested on: Escherichia coli; test: Antibacterial activity against Escherichia coli delta cirA delta fiu assessed as growth inhibition by measuring minimal concentration at OD600 by visual inspection with iron-limited media incubated for 24 hrs; type: functional
[14] = tested on: Escherichia coli; test: Antibacterial activity against Escherichia coli delta fiu assessed as growth inhibition by measuring minimal concentration at OD600 by visual inspection with iron-limited media incubated for 24 hrs; type: functional
[15] = tested on: Escherichia coli; test: Antibacterial activity against Escherichia coli delta tonB assessed as growth inhibition by measuring minimal concentration at OD600 by visual inspection with iron-limited media incubated for 24 hrs; type: functional
[16] = tested on: Escherichia coli; test: Antibacterial activity against Escherichia coli delta fepB assessed as growth inhibition by measuring minimal concentration at OD600 by visual inspection with iron-limited media incubated for 24 hrs; type: functional
[17] = tested on: Escherichia coli; test: Antibacterial activity against Escherichia coli delta cirA assessed as growth inhibition by measuring minimal concentration at OD600 by visual inspection with iron-limited media incubated for 24 hrs; type: functional
[18] = tested on: Escherichia coli; test: Antibacterial activity against Escherichia coli delta exbB assessed as growth inhibition by measuring minimal concentration at OD600 by visual inspection with iron-limited media incubated for 24 hrs; type: functional
[19] = tested on: Escherichia coli; test: Antibacterial activity against Escherichia coli delta fepA assessed as growth inhibition by measuring minimal concentration at OD600 by visual inspection with iron-limited media incubated for 24 hrs; type: functional
[20] = tested on: Escherichia coli; test: Recovery of growth in Escherichia coli BW25113 delta entA delta fepA double knock out assessed as reversal of growth at 10 uM in presence of 0.1 uM iron(III) chloride hexahydrate by growth recovery assay; type: functional, organism-based
[21] = tested on: Escherichia coli; test: Recovery of growth in Escherichia coli BW25113 delta entA delta fepA double knock out assessed as reversal of growth at 10 uM in presence of 0.1 uM iron(III) chloride hexahydrate measured after reintroduction of plasmid expressing full length FepA by growth recovery assay; type: functional, organism-based
[22] = tested on: Escherichia coli; test: Drug uptake in Escherichia coli BW25113 delta entA assessed in membrane fraction pre-treated at 10 uM in presence of 0.1 uM iron(III) chloride hexahydrate by mass spectrometry based cell fractionation assay; type: functional, organism-based
[23] = tested on: Escherichia coli; test: Drug uptake in Escherichia coli BW25113 delta entA assessed in peri-plasmic fraction pre-treated at 10 uM in presence of 0.1 uM iron(III) chloride hexahydrate by mass spectrometry based cell fractionation assay; type: functional, organism-based
[24] = tested on: Escherichia coli; test: Drug uptake in Escherichia coli BW25113 delta entA assessed in cytoplasmic fraction pre-treated at 10 uM in presence of 0.1 uM iron(III) chloride hexahydrate by mass spectrometry based cell fractionation assay; type: functional, organism-based
[25] = Metal chelating activity assessed as Fe3+-compound complex formation measured after 17 hrs by chrome azurol S dye based colorimetric assay

Compound | MIC [1] | MIC [2] | MIC [3] | Activity [4] | Activity [5] | MIC [6] | Activity [7] | also measured
CC1(C)S[C@@H]2[C@H](NC(=O)[C@H](NC(=O)CCn3cc(CCCC(=O)Nc4c(CNC(=O)c5cccc(O)c5O)cc(CNC(=O)c5cccc(O)c5O)cc4CNC(=O)c4cccc(O)c4O)nn3)c3ccccc3)C(=O)N2[C@H]1C(=O)O | > 57 µM | 5.3 µM (≈ 5.98 µg/mL) | 0.89 µM (≈ 1 µg/mL) | inactive | inactive | > 57 µM | – | –
O=C(NCc1cc(CNC(=O)c2cccc(O)c2O)cc(CNC(=O)c2cccc(O)c2O)c1)c1cccc(O)c1O | – | – | – | – | – | – | Active | –
CC1(C)S[C@@H]2[C@H](NC(=O)[C@H](NC(=O)CCn3cc(CCCC(=O)Nc4c(CNC(=O)c5cccc(O)c5O)cc(CNC(=O)c5cccc(O)c5O)cc4CNC(=O)c4cccc(O)c4O)nn3)c3ccc(O)cc3)C(=O)N2[C@H]1C(=O)O | 56 µM (≈ 64.1 µg/mL) | > 56 µM | 0.87 µM (≈ 0.996 µg/mL) | inactive | inactive | > 56 µM | – | –
CC1(C)S[C@@H]2[C@H](NC(=O)[C@H](N)c3ccccc3)C(=O)N2[C@H]1C(=O)O [AMPICILLIN] | > 183 µM | > 183 µM | 19 µM (≈ 6.64 µg/mL) | – | – | 2.7 µM (≈ 0.943 µg/mL) | – | MIC [8]: 46 µM (≈ 16.1 µg/mL); MIC [9]: 46 µM (≈ 16.1 µg/mL); MIC [10]: 46 µM (≈ 16.1 µg/mL); MIC [11]: 46 µM (≈ 16.1 µg/mL); MIC [12]: 46 µM (≈ 16.1 µg/mL); MIC [13]: 46 µM (≈ 16.1 µg/mL); MIC [14]: 46 µM (≈ 16.1 µg/mL); MIC [15]: 46 µM (≈ 16.1 µg/mL); MIC [16]: 46 µM (≈ 16.1 µg/mL); MIC [17]: 46 µM (≈ 16.1 µg/mL); MIC [18]: 46 µM (≈ 16.1 µg/mL); MIC [19]: 46 µM (≈ 16.1 µg/mL)
CC(=O)Oc1cccc(C(=O)NCc2cc(CNC(=O)c3cccc(OC(C)=O)c3OC(C)=O)c(NC(=O)CCCc3cn(CCC(=O)N[C@@H](C(=O)N[C@@H]4C(=O)N5[C@@H]4SC(C)(C)[C@@H]5C(=O)O)c4ccc(O)cc4)nn3)c(CNC(=O)c3cccc(OC(C)=O)c3OC(C)=O)c2)c1OC(C)=O | 46 µM (≈ 64.3 µg/mL) | > 46 µM | 1.4 µM (≈ 1.96 µg/mL) | inactive | inactive | > 46 µM | – | –
CCCCCCCCCC(=O)N[C@@H](Cc1c[nH]c2ccccc12)C(=O)N[C@H](CC(N)=O)C(=O)N[C@@H](CC(=O)O)C(=O)N[C@@H]1C(=O)NCC(=O)N[C@@H](CCCNC(=O)CCCCCn2cc(CCCC(=O)Nc3c(CNC(=O)c4cccc(O)c4O)cc(CNC(=O)c4cccc(O)c4O)cc3CNC(=O)c3cccc(O)c3O)nn2)C(=O)N[C@@H](CC(=O)O)C(=O)N[C@H](C)C(=O)N[C@@H](CC(=O)O)C(=O)NCC(=O)N[C@H](CO)C(=O)N[C@@H]([C@@H](C)CC(=O)O)C(=O)N[C@@H](CC(=O)c2ccccc2N)C(=O)O[C@@H]1C | 4.4 µM (≈ 10.7 µg/mL) | 8.7 µM (≈ 21.3 µg/mL) | > 64 µM | inactive | inactive | 13 µM (≈ 31.8 µg/mL) | – | –
CCCCCCCCCC(=O)N[C@@H](Cc1c[nH]c2ccccc12)C(=O)N[C@H](CC(N)=O)C(=O)N[C@@H](CC(=O)O)C(=O)N[C@@H]1C(=O)NCC(=O)N[C@@H](CCCN)C(=O)N[C@@H](CC(=O)O)C(=O)N[C@H](C)C(=O)N[C@@H](CC(=O)O)C(=O)NCC(=O)N[C@H](CO)C(=O)N[C@@H]([C@H](C)CC(=O)O)C(=O)N[C@@H](CC(=O)c2ccccc2N)C(=O)O[C@@H]1C | > 39 µM | 0.36 µM (≈ 0.583 µg/mL) | > 64 µM | – | – | 0.62 µM (≈ 1 µg/mL) | – | –
CC(=O)Oc1cccc(C(=O)NCc2cc(CNC(=O)c3cccc(OC(C)=O)c3OC(C)=O)c(NC(=O)CCOCCOCCOCCOCc3cn(CCC(=O)N[C@@H](C(=O)N[C@@H]4C(=O)N5[C@@H]4SC(C)(C)[C@@H]5C(=O)O)c4ccccc4)nn3)c(CNC(=O)c3cccc(OC(C)=O)c3OC(C)=O)c2)c1OC(C)=O | 64 µM (≈ 97.9 µg/mL) | > 64 µM | 0.81 µM (≈ 1.24 µg/mL) | inactive | inactive | > 64 µM | – | –
CC1(C)S[C@@H]2[C@H](NC(=O)[C@H](N)c3ccc(O)cc3)C(=O)N2[C@H]1C(=O)O [AMOXICILLIN] | > 175 µM | > 175 µM | 18 µM (≈ 6.58 µg/mL) | – | – | 1.3 µM (≈ 0.475 µg/mL) | – | –
CC(=O)Oc1cccc(C(=O)NCCc2cc(CCNC(=O)c3cccc(OC(C)=O)c3OC(C)=O)c([N+](=O)[O-])c(CCNC(=O)c3cccc(OC(C)=O)c3OC(C)=O)c2)c1OC(C)=O | – | – | – | – | – | – | Active | –
CC(C)(O/N=C(\C(=O)N[C@@H]1C(=O)N2C(C(=O)[O-])=C(C[N+]3(CCNC(=O)c4ccc(O)c(O)c4Cl)CCCC3)CS[C@H]12)c1csc(N)n1)C(=O)O [CEFIDEROCOL] | 0.053 µM (≈ 0.0399 µg/mL) | > 85 µM | 0.042 µM (≈ 0.0316 µg/mL) | – | – | > 85 µM | – | MIC [8]: 0.083 µM (≈ 0.0624 µg/mL); MIC [9]: 0.17 µM (≈ 0.128 µg/mL); MIC [10]: 0.66 µM (≈ 0.496 µg/mL); MIC [11]: > 21 µM; MIC [12]: 33 µM (≈ 24.8 µg/mL); MIC [13]: 21 µM (≈ 15.8 µg/mL); MIC [14]: 0.66 µM (≈ 0.496 µg/mL); MIC [15]: > 21 µM; MIC [16]: 0.083 µM (≈ 0.0624 µg/mL); MIC [17]: 0.66 µM (≈ 0.496 µg/mL); MIC [18]: 5.3 µM (≈ 3.99 µg/mL); MIC [19]: 0.17 µM (≈ 0.128 µg/mL)
CC(=O)Oc1cccc(C(=O)NCc2cc(CNC(=O)c3cccc(OC(C)=O)c3OC(C)=O)c([N+](=O)[O-])c(CNC(=O)c3cccc(OC(C)=O)c3OC(C)=O)c2)c1OC(C)=O | – | – | – | – | – | – | Active | Activity [20]: inactive; Activity [21]: Active
CC(=O)Oc1cccc(C(=O)NCc2cc(CNC(=O)c3cccc(OC(C)=O)c3OC(C)=O)cc(CNC(=O)c3cccc(OC(C)=O)c3OC(C)=O)c2)c1OC(C)=O | – | – | – | – | – | – | Active | –
O=C(NCc1cc(CNC(=O)c2cccc(O)c2O)c([N+](=O)[O-])c(CNC(=O)c2cccc(O)c2O)c1)c1cccc(O)c1O | – | – | – | – | – | – | Active | Drug uptake [22]: Active; Drug uptake [23]: Active; Drug uptake [24]: inactive; Activity [25]: Active
CC(=O)Oc1cccc(C(=O)NCc2cc(CNC(=O)c3cccc(OC(C)=O)c3OC(C)=O)c(CNC(=O)c3cccc(OC(C)=O)c3OC(C)=O)c([N+](=O)[O-])c2)c1OC(C)=O | – | – | – | – | – | – | Active | –

Source: ChEMBL document CHEMBL4831541, “Antibiotic Conjugates with an Artificial MECAM-Based Siderophore Are Potent Agents against Gram-Positive and Gram-Negative Bacterial Pathogens” (2021)
